Among the data in paper doi:10.1101/2025.05.17.654689v2 (biorxiv, 2025) are Km values, retold here.

SMILES strings stand for the structures.

This test deals with QgIspS1-like (ΔTP-QgIspS1-like-6×His). In words: GC-MS. It is filed as biochemical, Quercus glauca. Particulars: 20 mM MgCl2, 37 °C, 30 min; from formation of the main product trans-β-ocimene.

`CC(C)=CCC/C(C)=C/COP(=O)(O)OP(=O)(O)O` [GPP]: the Km worked out at 180 ± 40 µM.
